Biological target: T1, Mp myosin XI-MD (Marchantia polymorpha, UniProt H3JRT9)
T1 construct: gene MyoXI; motor domain, residues 1-738; N-terminal FLAG tag (MDYKDDDDKRSMNSRPA), C-terminal GGG-Myc-His8 tag
T1 sequence (H3JRT9 1-738): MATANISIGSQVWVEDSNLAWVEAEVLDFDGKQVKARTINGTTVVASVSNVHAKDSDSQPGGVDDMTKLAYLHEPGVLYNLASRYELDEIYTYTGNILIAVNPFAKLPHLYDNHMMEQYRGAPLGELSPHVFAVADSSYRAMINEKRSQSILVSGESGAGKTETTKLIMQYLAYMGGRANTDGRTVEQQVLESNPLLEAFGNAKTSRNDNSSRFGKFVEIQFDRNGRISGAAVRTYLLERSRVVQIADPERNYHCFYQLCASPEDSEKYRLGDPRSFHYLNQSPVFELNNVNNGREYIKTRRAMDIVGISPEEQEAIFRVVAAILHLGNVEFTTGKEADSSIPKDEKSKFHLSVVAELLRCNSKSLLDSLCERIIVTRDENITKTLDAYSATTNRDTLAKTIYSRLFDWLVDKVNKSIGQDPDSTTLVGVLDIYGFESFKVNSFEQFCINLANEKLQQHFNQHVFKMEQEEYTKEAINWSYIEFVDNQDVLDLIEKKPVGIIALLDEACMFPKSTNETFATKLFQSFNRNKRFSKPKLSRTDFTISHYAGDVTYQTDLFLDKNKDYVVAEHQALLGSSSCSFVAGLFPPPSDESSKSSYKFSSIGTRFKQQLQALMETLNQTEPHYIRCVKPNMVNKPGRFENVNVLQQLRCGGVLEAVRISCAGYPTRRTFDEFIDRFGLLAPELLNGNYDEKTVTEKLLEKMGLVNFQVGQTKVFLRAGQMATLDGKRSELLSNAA
Experiment: steady-state actin-activated Mg2+-ATPase assay
Assay type: biochemical
Settings: F-actin varied, 25 °C

Nc1ncnc2c1ncn2[C@@H]1O[C@H](COP(=O)(O)OP(=O)(O)OP(=O)(O)O)[C@@H](O)[C@H]1O [ATP]
steady-state actin-activated Mg2+-ATPase assay: we determined the maximum rate of ATP turnover (V max) and the actin concentration

Reference: publication PMC7689712, “Characterization of ancestral myosin XI from Marchantia polymorpha by heterologous expression in Arabidopsis thaliana” (The Plant Journal, 2020)
